The kinase profiling compilation of Christmann-Franck et al. (2016)
pKd: −log10 of the molar value.

Key:
Test in all cases: KINOMEscan competition binding
[1] = tested on: MET (human), P08581 [M1250T]; settings: compound 10.0 µM
[2] = biological target: CSF1R (human) (UniProt P07333); settings: compound 10.0 µM
[3] = biological target: JAK1 JH2 pseudokinase (human) (UniProt P23458); settings: compound 10.0 µM
[4] = biological target: RIPK2 (human) (UniProt O43353); settings: compound 10.0 µM
[5] = biological target: CHEK1 (human) (UniProt O14757); settings: compound 10.0 µM
[6] = biological target: ABL2 (human) (UniProt P42684); settings: compound 10.0 µM
[7] = biological target: CDK5 (human) (UniProt Q00535); settings: compound 10.0 µM
Chain of CDK5 (human) (Q00535 whole entry, looked up): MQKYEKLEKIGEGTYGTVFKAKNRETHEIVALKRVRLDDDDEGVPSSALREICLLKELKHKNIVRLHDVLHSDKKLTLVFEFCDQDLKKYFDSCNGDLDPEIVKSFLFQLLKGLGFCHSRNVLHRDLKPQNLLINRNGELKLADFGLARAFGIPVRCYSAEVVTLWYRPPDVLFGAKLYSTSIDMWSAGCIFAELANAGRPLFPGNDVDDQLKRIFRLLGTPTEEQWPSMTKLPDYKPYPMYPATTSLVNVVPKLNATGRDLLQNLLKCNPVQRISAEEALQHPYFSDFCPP

[8] = biological target: ULK2 (human) (UniProt Q8IYT8); settings: compound 10.0 µM
[9] = biological target: NEK2 (human) (UniProt P51955); settings: compound 10.0 µM
[10] = biological target: STK33 (human) (UniProt Q9BYT3); settings: compound 10.0 µM
[11] = biological target: MLTK (human) (UniProt Q9NYL2); settings: compound 10.0 µM
[12] = biological target: PRKD3 (human) (UniProt O94806); settings: compound 10.0 µM
[13] = biological target: STK32B (human) (UniProt Q9NY57); settings: compound 10.0 µM
[14] = biological target: SRPK2 (human) (UniProt P78362); settings: compound 10.0 µM
[15] = biological target: SNRK (human) (UniProt Q9NRH2); settings: compound 10.0 µM
[16] = tested on: EGFR (human), P00533 [P753S; 747-752 del]; settings: compound 10.0 µM
[17] = tested on: FLT3 (human), P36888 [K663Q]; settings: compound 10.0 µM
[18] = biological target: TEK (human) (UniProt Q02763); settings: compound 10.0 µM
Chain of TEK (human) (Q02763 whole entry, looked up): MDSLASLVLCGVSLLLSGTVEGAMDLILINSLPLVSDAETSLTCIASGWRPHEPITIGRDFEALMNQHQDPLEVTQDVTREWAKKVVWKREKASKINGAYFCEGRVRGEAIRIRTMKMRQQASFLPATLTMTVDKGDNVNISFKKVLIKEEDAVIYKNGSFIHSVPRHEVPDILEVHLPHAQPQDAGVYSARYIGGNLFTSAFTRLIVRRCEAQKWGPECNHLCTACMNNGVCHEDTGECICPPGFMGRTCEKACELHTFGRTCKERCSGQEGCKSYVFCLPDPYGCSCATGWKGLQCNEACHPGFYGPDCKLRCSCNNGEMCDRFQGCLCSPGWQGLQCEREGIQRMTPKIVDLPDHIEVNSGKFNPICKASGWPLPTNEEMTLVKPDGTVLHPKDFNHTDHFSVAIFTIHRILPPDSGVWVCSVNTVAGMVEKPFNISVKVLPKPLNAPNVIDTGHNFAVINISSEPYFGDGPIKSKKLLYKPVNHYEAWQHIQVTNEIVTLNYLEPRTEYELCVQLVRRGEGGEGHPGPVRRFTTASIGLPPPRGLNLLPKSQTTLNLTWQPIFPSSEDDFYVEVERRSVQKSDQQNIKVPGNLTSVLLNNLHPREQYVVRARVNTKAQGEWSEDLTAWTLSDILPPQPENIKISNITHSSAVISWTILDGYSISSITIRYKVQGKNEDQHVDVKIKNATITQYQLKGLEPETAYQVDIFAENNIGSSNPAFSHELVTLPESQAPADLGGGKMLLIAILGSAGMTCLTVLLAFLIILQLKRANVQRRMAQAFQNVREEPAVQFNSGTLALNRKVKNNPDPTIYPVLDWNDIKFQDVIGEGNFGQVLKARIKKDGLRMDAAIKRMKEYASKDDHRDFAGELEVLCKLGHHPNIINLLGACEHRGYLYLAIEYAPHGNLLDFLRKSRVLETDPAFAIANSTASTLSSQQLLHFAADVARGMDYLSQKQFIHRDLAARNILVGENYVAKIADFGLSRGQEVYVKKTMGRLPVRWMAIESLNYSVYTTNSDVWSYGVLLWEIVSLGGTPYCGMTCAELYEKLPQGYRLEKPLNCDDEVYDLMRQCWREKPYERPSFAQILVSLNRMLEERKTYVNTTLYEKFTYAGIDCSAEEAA

[19] = biological target: MAPK7 (human) (UniProt Q13164); settings: compound 10.0 µM
Chain of MAPK7 (human) (Q13164 whole entry, looked up): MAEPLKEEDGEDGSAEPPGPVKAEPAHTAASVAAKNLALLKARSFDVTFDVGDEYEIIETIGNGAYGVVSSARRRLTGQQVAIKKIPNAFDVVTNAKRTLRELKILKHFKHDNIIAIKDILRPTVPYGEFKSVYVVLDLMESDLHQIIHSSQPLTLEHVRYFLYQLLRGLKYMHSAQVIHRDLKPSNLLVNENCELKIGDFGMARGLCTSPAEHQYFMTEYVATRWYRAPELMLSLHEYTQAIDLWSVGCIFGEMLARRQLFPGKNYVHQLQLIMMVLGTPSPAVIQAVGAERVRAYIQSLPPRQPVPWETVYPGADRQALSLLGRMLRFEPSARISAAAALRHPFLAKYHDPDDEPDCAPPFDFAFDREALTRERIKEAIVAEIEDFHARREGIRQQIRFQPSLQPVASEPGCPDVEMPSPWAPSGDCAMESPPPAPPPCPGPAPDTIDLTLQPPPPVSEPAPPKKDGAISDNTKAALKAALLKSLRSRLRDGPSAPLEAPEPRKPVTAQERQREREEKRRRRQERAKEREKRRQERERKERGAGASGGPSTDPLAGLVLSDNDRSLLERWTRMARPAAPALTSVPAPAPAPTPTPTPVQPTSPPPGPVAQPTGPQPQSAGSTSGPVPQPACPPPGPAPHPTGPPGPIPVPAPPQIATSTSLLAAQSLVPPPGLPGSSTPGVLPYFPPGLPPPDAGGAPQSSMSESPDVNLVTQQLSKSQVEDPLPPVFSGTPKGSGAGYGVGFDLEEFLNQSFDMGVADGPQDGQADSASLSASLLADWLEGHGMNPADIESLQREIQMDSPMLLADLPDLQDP

[20] = biological target: WEE2 (human) (UniProt P0C1S8); settings: compound 10.0 µM
[21] = biological target: CDKL3 (human) (UniProt Q8IVW4); settings: compound 10.0 µM
[22] = biological target: STK4 (human) (UniProt Q13043); settings: compound 10.0 µM
Chain of STK4 (human) (Q13043 whole entry, looked up): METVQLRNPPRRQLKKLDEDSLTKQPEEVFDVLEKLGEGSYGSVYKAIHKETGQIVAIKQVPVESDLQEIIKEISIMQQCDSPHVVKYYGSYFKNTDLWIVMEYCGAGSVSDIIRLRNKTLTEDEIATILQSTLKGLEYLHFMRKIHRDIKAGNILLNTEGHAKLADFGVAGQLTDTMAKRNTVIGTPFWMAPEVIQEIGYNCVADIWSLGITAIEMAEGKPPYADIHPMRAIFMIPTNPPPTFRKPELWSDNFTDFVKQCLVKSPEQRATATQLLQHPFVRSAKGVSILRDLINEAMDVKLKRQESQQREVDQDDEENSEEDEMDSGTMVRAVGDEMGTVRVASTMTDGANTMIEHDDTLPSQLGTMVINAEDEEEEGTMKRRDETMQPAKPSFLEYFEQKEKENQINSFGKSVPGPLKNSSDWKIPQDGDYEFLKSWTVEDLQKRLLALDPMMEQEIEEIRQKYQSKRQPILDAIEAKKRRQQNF

[23] = biological target: TIE1 (human) (UniProt P35590); settings: compound 10.0 µM
[24] = biological target: DCLK2 (human) (UniProt Q8N568)
Chain of DCLK2 (human) (Q8N568 whole entry, looked up): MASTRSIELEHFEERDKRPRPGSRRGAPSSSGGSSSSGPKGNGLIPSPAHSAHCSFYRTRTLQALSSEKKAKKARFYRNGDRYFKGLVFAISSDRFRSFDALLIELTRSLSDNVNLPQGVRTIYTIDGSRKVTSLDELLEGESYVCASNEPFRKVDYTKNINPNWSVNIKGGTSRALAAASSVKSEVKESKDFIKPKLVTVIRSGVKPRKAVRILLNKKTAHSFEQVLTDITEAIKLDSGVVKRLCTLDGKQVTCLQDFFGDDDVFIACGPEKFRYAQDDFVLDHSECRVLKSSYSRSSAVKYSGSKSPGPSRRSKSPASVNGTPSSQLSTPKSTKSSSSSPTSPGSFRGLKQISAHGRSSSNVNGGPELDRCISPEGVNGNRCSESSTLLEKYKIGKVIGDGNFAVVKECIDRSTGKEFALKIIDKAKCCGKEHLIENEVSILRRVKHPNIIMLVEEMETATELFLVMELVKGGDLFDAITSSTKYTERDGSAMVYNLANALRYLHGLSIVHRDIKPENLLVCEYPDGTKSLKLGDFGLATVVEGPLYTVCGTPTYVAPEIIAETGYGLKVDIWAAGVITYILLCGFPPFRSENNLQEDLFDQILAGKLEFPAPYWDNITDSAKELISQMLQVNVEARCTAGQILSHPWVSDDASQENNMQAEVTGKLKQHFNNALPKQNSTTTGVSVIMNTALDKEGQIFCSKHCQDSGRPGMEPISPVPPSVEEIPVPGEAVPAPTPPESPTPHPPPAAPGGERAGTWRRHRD

[25] = biological target: PIP4K2C (human) (UniProt Q8TBX8); settings: compound 10.0 µM
[26] = biological target: EIF2AK1 (human) (UniProt Q9BQI3); settings: compound 10.0 µM
[27] = tested on: KIT (human), P10721 [V559D]; settings: compound 10.0 µM
[28] = biological target: MTOR (human) (UniProt P42345); settings: compound 10.0 µM
[29] = biological target: ANKK1 (human) (UniProt Q8NFD2); settings: compound 10.0 µM
[30] = biological target: SBK1 (human) (UniProt Q52WX2); settings: compound 10.0 µM
[31] = biological target: LATS2 (human) (UniProt Q9NRM7); settings: compound 10.0 µM
[32] = tested on: PIK3CA (human), P42336 [C420R]; settings: compound 10.0 µM
[33] = tested on: FLT3 (human), P36888 [D835Y]; settings: compound 10.0 µM
[34] = biological target: CDC42BPB (human) (UniProt Q9Y5S2); settings: compound 10.0 µM
[35] = biological target: MAK (human) (UniProt P20794); settings: compound 10.0 µM
Chain of MAK (human) (P20794 whole entry, looked up): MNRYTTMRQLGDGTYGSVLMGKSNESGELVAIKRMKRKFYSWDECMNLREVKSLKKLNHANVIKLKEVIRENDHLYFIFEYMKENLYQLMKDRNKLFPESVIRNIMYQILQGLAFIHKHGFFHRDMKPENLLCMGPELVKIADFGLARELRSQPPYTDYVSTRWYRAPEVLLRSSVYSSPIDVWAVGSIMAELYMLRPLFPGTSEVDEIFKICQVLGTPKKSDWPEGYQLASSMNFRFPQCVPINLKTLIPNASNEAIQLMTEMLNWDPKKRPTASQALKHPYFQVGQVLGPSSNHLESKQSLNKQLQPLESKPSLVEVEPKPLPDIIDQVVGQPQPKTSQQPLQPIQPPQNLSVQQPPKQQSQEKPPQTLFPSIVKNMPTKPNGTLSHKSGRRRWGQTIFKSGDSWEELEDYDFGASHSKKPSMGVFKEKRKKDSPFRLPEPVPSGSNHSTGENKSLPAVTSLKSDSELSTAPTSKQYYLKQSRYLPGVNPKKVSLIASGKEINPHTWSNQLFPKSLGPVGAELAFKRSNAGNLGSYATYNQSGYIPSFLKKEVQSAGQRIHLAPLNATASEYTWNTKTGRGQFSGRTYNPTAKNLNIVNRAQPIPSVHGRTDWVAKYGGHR

[36] = biological target: CAMK4 (human) (UniProt Q16566); settings: compound 10.0 µM
[37] = biological target: STK39 (human) (UniProt Q9UEW8); settings: compound 10.0 µM
[38] = biological target: IGF1R (human) (UniProt P08069); settings: compound 10.0 µM
[39] = biological target: MAP3K11 (human) (UniProt Q16584); settings: compound 10.0 µM
Chain of MAP3K11 (human) (Q16584 whole entry, looked up): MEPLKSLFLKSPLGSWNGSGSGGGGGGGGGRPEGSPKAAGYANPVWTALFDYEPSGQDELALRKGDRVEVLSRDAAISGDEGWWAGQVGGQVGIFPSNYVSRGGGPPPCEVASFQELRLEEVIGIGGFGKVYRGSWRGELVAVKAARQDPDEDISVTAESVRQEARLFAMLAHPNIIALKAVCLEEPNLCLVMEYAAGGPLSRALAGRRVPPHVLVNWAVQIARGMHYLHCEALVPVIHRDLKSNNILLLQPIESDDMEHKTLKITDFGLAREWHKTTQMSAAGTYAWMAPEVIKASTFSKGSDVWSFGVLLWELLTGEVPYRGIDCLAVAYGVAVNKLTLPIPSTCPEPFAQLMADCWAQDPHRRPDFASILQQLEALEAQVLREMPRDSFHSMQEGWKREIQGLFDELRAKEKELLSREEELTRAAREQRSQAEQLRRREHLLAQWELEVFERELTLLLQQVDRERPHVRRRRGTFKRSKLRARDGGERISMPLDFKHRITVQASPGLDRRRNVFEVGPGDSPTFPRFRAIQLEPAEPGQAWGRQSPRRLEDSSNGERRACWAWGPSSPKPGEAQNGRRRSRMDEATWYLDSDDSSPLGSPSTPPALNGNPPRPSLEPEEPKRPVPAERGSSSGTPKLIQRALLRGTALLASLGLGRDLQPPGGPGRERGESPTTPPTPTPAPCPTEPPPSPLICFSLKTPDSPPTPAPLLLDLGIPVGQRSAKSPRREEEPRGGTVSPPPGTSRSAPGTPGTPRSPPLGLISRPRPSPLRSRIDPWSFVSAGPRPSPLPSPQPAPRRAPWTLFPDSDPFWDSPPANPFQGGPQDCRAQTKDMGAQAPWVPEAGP

[40] = biological target: MST1R (human) (UniProt Q04912); settings: compound 10.0 µM
[41] = tested on: EGFR (human), P00533 [G719C]; settings: compound 10.0 µM

SMILES: COc1cc(C(=O)N2CCC(N3CCN(C)CC3)CC2)ccc1Nc1ncc2c(n1)N(C)c1ccccc1C(=O)N2C
- kinase still bound, per cent of control [1]: 96%
- kinase still bound, per cent of control [2]: 98%
- kinase still bound, per cent of control [3]: 92%
- kinase still bound, per cent of control [4]: 100%
- kinase still bound, per cent of control [5]: 100%
- kinase still bound, per cent of control [6]: 97%
- residual activity [7]: 81%
- kinase still bound, per cent of control [8]: 67%
- kinase still bound, per cent of control [9]: 100%
- kinase still bound, per cent of control [10]: 10%
- kinase still bound, per cent of control [11]: 99%
- kinase still bound, per cent of control [12]: 42%
- kinase still bound, per cent of control [13]: 100%
- kinase still bound, per cent of control [14]: 100%
- kinase still bound, per cent of control [15]: 94%
- kinase still bound, per cent of control [16]: 84%
- kinase still bound, per cent of control [17]: 97%
- kinase still bound, per cent of control [18]: 100%
- kinase still bound, per cent of control [19]: 0.05%
- kinase still bound, per cent of control [20]: 100%
- residual activity [21]: 83%
- kinase still bound, per cent of control [22]: 100%
- kinase still bound, per cent of control [23]: 100%
- pKd [24]: 7.80
- kinase still bound, per cent of control ([24]; compound 10.0 µM): 0.45%
- kinase still bound, per cent of control [25]: 40%
- kinase still bound, per cent of control [26]: 100%
- kinase still bound, per cent of control [27]: 100%
- kinase still bound, per cent of control [28]: 97%
- kinase still bound, per cent of control [29]: 100%
- kinase still bound, per cent of control [30]: 100%
- kinase still bound, per cent of control [31]: 95%
- kinase still bound, per cent of control [32]: 89%
- kinase still bound, per cent of control [33]: 100%
- kinase still bound, per cent of control [34]: 100%
- kinase still bound, per cent of control [35]: 72%
- kinase still bound, per cent of control [36]: 79%
- residual activity [37]: 39%
- residual activity [38]: 96%
- kinase still bound, per cent of control [39]: 100%
- kinase still bound, per cent of control [40]: 98%
- kinase still bound, per cent of control [41]: 100%
